Measured values: PubChem BioAssay AID1332 (Southern Research Institute, 2008)
Converted amounts (≈) assume the structure as drawn. Starred links: 1 amine or outer side, 2 acyl side, 3 side chain; linkers in the order of their positions; H or OH if unused. Positions of bridges follow the written chain, without caps; N, C: chain ends. Non-standard residues stand in square brackets, D forms with d. Residues, ends and D or L forms follow the SMILES beside them. *: point of attachment. X2 = NC1=N[C@@H]([C@H](N[*:1])C(=O)[*:2])C[C@H](O)N1; ΔAla(Z-3-ureido) = NC(=O)N/C=C(\N)C(=O)O; β3hOrn = NCCC[C@H](N)CC(=O)*; Dap = NC[C@H](N)C(=O)O

These molecules were tested on M. tuberculosis H37Rv growth inhibition (assay: Confirmatory growth inhibition assay, mycobacterium tuberculosis h37rv, with cytotoxicity (AID 1332);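 note: bacteria incubated 7 days before adding Alamar blue readout reagent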).
`CC(=O)O[C@H]1C[C@@]2(C)[C@@H](C[C@@H](O)[C@H]3[C@@]4(C)CC[C@@H](O)[C@@H](C)C4CC[C@@]32C)/C1=C(\CCC=C(C)C)C(=O)O` (some centres not stated) showed an IC90 of 0.586 µg/mL (≈ 1.13 µM). Molecule `CN(CCCCCCCCCCN(C)C(=O)Oc1cccc([N+](C)(C)C)c1)C(=O)Oc1cccc([N+](C)(C)C)c1` has an IC90 of 2.19 µg/mL. In the case of `Nc1nc(=S)c2ncn([C@@H]3O[C@H](CO)[C@@H](O)[C@H]3O)c2[nH]1`, the IC90 is reported as 11.9 µg/mL (≈ 39.7 µM). With `NNC(=O)c1ccncc1` the IC90 was 10.4 µg/mL (≈ 75.5 µM). `Cc1cc(N)c2ccccc2[n+]1CCCCCCCCCC[n+]1c(C)cc(N)c2ccccc21` gave an IC90 of 1.78 µg/mL. In the case of `N[C@@H](C(=O)N[C@@H]1C(=O)N2C(C(=O)O)=C(Cl)CS[C@H]12)c1ccccc1`, the IC90 is reported as 11.3 µg/mL (≈ 30.6 µM). Work on `CNc1ncnc2c1ncn2[C@@H]1O[C@H](CO)[C@@H](O)[C@H]1O` yielded an IC90 of 0.822 µg/mL (≈ 2.92 µM). `COc1cccc2c1C(=O)c1c(O)c3c(c(O)c1C2=O)C[C@@](O)(C(C)=O)C[C@@H]3O[C@H]1C[C@H](N)[C@H](O)[C@H](C)O1` was tested, and the IC90 was 0.169 µg/mL (≈ 0.32 µM). `CS(=O)(=O)c1ccc([C@@H](O)[C@@H](CO)NC(=O)C(Cl)Cl)cc1` showed an IC90 of 2.42 µg/mL (≈ 6.81 µM). In the case of `C=C1C(=O)O[C@@H]2[C@H]3O[C@]3(C)CC/C=C(\C)CC[C@@H]12`, the IC90 is reported as 1.43 µg/mL (≈ 5.76 µM). `NCC[C@H](O)C(=O)N[C@@H]1C[C@H](N)[C@@H](O[C@H]2O[C@H](CN)[C@@H](O)[C@H](O)[C@H]2O)[C@H](O)[C@H]1O[C@H]1O[C@H](CO)[C@@H](O)[C@H](N)[C@H]1O` gave an IC90 of 0.04 µg/mL (≈ 0.0683 µM). `CN(C)[C@@H]1C(=O)C(C(N)=O)=C(O)[C@@]2(O)C(=O)C3=C(O)c4c(O)ccc(Cl)c4[C@@H](O)[C@H]3C[C@@H]12` showed an IC90 of 12.6 µg/mL (≈ 27.1 µM). `CCC(C)N1CCC2(CC1)N=c1c(c3c4c5c(C)c(O)c3c(O)c1=NC(=O)/C(C)=C/C=C/[C@H](C)[C@H](O)[C@@H](C)[C@@H](O)[C@@H](C)[C@H](OC(C)=O)[C@H](C)[C@@H](OC)/C=C/O[C@@](C)(O5)C4=O)N2` (some centres not stated) was tested, and the IC90 was 0.04 µg/mL (≈ 0.0472 µM). For `CCCCCCC[N+](CC)(CC)CCCCc1ccc(Cl)cc1`, the IC90 was 15.6 µg/mL. Work on `CSc1ccc2c(c1)N(CCC1CCCCN1C)c1ccccc1S2` (configuration not stated) yielded an IC90 of 3.01 µg/mL (≈ 8.13 µM). Molecule `CC[C@H](CO)NCCN[C@H](CC)CO` has an IC90 of 0.191 µg/mL (≈ 0.935 µM). Molecule `CO[C@H]1/C=C/O[C@@]2(C)Oc3c(C)c(O)c4c(O)c(c(/C=N/N5CCN(C)CC5)c(O)c4c3C2=O)NC(=O)/C(C)=C\C=C\[C@H](C)[C@H](O)[C@@H](C)[C@@H](O)[C@@H](C)[C@H](OC(C)=O)[C@@H]1C` has an IC90 of 0.04 µg/mL (≈ 0.0486 µM). `CC[C@H](C)[C@H]1O[C@]2(CC[C@@H]1C)C[C@@H]1C[C@@H](C/C=C(\C)[C@@H](O[C@H]3C[C@H](OC)[C@@H](O[C@H]4C[C@H](OC)[C@@H](O)[C@H](C)O4)[C@H](C)O3)[C@@H](C)/C=C/C=C3\CO[C@@H]4[C@H](O)C(C)=C[C@@H](C(=O)O1)[C@]34O)O2` was tested, and the IC90 was 1.29 µg/mL (≈ 1.48 µM). `CCC(C)[C@H]1O[C@]2(C=C[C@@H]1C)C[C@@H]1C[C@@H](C/C=C(\C)C(O[C@H]3C[C@H](OC)C(O[C@H]4C[C@H](OC)[C@@H](O)[C@H](C)O4)[C@H](C)O3)[C@@H](C)/C=C/C=C3\CO[C@@H]4[C@H](O)C(C)=C[C@@H](C(=O)O1)[C@]34O)O2` (some centres not stated) was tested, and the IC90 was 2.72 µg/mL (≈ 3.12 µM). Molecule `N=C(N)c1ccc(OCCCCCOc2ccc(C(=N)N)cc2)cc1` has an IC90 of 1.68 µg/mL (≈ 4.93 µM). Molecule `COc1ccc(C[C@H](N)C(=O)N[C@H]2[C@@H](O)[C@H](n3cnc4c(N(C)C)ncnc43)O[C@@H]2CO)cc1` has an IC90 of 1.75 µg/mL (≈ 3.71 µM). With `CNCCC=C1c2ccccc2C=Cc2ccccc21` the IC90 was 17.1 µg/mL (≈ 65.3 µM). With `CC(Cc1ccccc1)NCCC(c1ccccc1)c1ccccc1` (configuration not stated) the IC90 was 4.55 µg/mL (≈ 13.8 µM). In the case of `CN1CCN(CCCN2c3ccccc3Sc3ccc(Cl)cc32)CC1`, the IC90 is reported as 8.01 µg/mL (≈ 21.4 µM). Molecule `CN1CCN(CCCN2c3ccccc3Sc3ccc(C(F)(F)F)cc32)CC1` has an IC90 of 2.77 µg/mL (≈ 6.8 µM). In the case of `C(=C\c1ccccc1)/CN1CCN(C(c2ccccc2)c2ccccc2)CC1`, the IC90 is reported as 7.6 µg/mL (≈ 20.6 µM). `CC(C)COCC(CN(Cc1ccccc1)c1ccccc1)N1CCCC1` (configuration not stated) was tested, and the IC90 was 11.3 µg/mL (≈ 30.7 µM). `CCn1cc(C(=O)O)c(=O)c2cc(F)c(N3CCNCC3)cc21` gave an IC90 of 0.81 µg/mL (≈ 2.54 µM). `COc1cccc2c1C(=O)c1c(O)c3c(c(O)c1C2=O)C[C@@](O)(C(=O)CO)C[C@@H]3O[C@H]1C[C@H](N)[C@H](O)[C@H](C)O1` gave an IC90 of 2.6 µg/mL (≈ 4.79 µM). `CO[C@@H]1[C@@H](OC(N)=O)[C@@H](O)C(Oc2ccc3c(O)c(NC(=O)c4ccc(O)c(CC=C(C)C)c4)c(=O)oc3c2C)OC1(C)C` (some centres not stated) was tested, and the IC90 was 4.96 µg/mL (≈ 8.1 µM). `CN(C(=O)CN(CCO)CC(=O)N(C)C(C)(C)Cc1ccccc1)C(C)(C)Cc1ccccc1` showed an IC90 of 15.6 µg/mL (≈ 33.4 µM). With `CSc1ccc2c(c1)C(N1CCN(C)CC1)Cc1ccccc1S2` (configuration not stated) the IC90 was 4.56 µg/mL (≈ 12.8 µM). Molecule `NCCC[C@H](N)CC(=O)N[C@H]1CNC(=O)[C@H]([C@H]2C[C@H](O)NC(N)=N2)NC(=O)/C(=C/NC(N)=O)NC(=O)[C@H](CO)NC(=O)[C@H](CO)NC1=O` (β3hOrn-[Dap]SS[ΔAla(Z-3-ureido)][X2]; lactam 1-C) has an IC90 of 0.069 µg/mL (≈ 0.101 µM). With `CN[C@@H]1[C@H](O[C@H]2[C@H](O[C@@H]3[C@@H](O)[C@H](O)[C@@H](N=C(N)N)[C@H](O)[C@H]3N=C(N)N)O[C@@H](C)[C@]2(O)C=O)O[C@@H](CO)[C@H](O)[C@H]1O` the IC90 was 1.11 µg/mL (≈ 1.92 µM). Work on `Cc1cccc(C)c1NC(=O)CN1CCN(CCCC(c2ccc(F)cc2)c2ccc(F)cc2)CC1` yielded an IC90 of 5.27 µg/mL (≈ 10.7 µM). `CC/C(=C(\c1ccccc1)c1ccc(OCCN(C)C)cc1)c1ccccc1` showed an IC90 of 13.6 µg/mL (≈ 36.7 µM). Molecule `Cc1cc(C=Cc2ccc3cc(N(C)C)ccc3[n+]2C)c(C)n1-c1ccccc1` has an IC90 of 0.195 µg/mL. For `Clc1ccc(CSC(Cn2ccnc2)c2ccc(Cl)cc2Cl)cc1` (configuration not stated), the IC90 was 2.53 µg/mL (≈ 6.37 µM). `O=C(N/N=C/c1ccc([N+](=O)[O-])o1)c1ccc(O)cc1` gave an IC90 of 1.54 µg/mL (≈ 5.58 µM). In the case of `CCCCN(CCCC)CCC(O)c1cc2c(Cl)cc(Cl)cc2c2cc(C(F)(F)F)ccc12` (configuration not stated), the IC90 is reported as 1.15 µg/mL (≈ 2.3 µM). Work on `CS(=O)(=O)c1ccc([C@@H](O)[C@@H](CF)NC(=O)C(Cl)Cl)cc1` yielded an IC90 of 2.7 µg/mL (≈ 7.53 µM). `CN(C)CC/C=C1\c2ccccc2Sc2ccc(Cl)cc21` showed an IC90 of 3.93 µg/mL (≈ 12.4 µM).
